Measured values taken from the supplement of paper PMC13380429.

Assays:
Settings in all cases: 72 h
[1] = tested on: Caco-2; assay: cell viability relative to DMSO; higher = less toxic
[2] = tested on: Calu-3; assay: as above
[3] = tested on: U2OS; assay: as above
[4] = tested on: Vero E6; assay: as above
[5] = tested on: Caco-2; assay: relative viability EC50 (midpoint between 100% and the lowest measured viability); higher = less toxic
[6] = tested on: Calu-3; assay: as above
[7] = tested on: U2OS; assay: as above
[8] = tested on: Vero E6; assay: as above
[9] = tested on: Caco-2; assay: drug sensitivity score (DSS) for viability; higher = more toxic; extreme values may be limits of the assay
[10] = tested on: Calu-3; assay: as above
[11] = tested on: U2OS; assay: as above
[12] = tested on: Vero E6; assay: as above
[13] = tested on: HepG2; assay: cell viability relative to DMSO; higher = less toxic
[14] = tested on: HepG2; assay: relative viability EC50 (midpoint between 100% and the lowest measured viability); higher = less toxic
[15] = tested on: HepG2; assay: drug sensitivity score (DSS) for viability; higher = more toxic; extreme values may be limits of the assay

Compound: COc1ccc2[nH]cc(C3=CCNCC3)c2c1
- cell viability ([1]; 1 nM): 90.7%
- cell viability ([1]; 10 nM): 107%
- cell viability ([1]; 100 nM): 99.6%
- cell viability ([1]; 1000 nM): 106%
- cell viability ([1]; 10000 nM): 98.4%
- cell viability ([2]; 1 nM): 92.3%
- cell viability ([2]; 10 nM): 90%
- cell viability ([2]; 100 nM): 95.1%
- cell viability ([2]; 1000 nM): 96.1%
- cell viability ([2]; 10000 nM): 101%
- cell viability ([3]; 1 nM): 95.7%
- cell viability ([3]; 10 nM): 103%
- cell viability ([3]; 100 nM): 96%
- cell viability ([3]; 1000 nM): 102%
- cell viability ([3]; 10000 nM): 98.8%
- cell viability ([4]; 1 nM): 101%
- cell viability ([4]; 10 nM): 98.7%
- cell viability ([4]; 100 nM): 104%
- cell viability ([4]; 1000 nM): 105%
- cell viability ([4]; 10000 nM): 100%
- relative viability EC50 [5]: > 10 µM
- relative viability EC50 [6]: > 10 µM
- relative viability EC50 [7]: > 10 µM
- relative viability EC50 [8]: > 10 µM
- drug sensitivity score [9]: 0
- drug sensitivity score [10]: 0
- drug sensitivity score [11]: 0
- drug sensitivity score [12]: 0

Compound: O=[N+]([O-])c1cnc(Sc2nnc(O)n2-c2ccc3c(c2)OCCO3)s1 [BI-78D3]
- cell viability ([1]; 1 nM): 99.2%
- cell viability ([1]; 10 nM): 102%
- cell viability ([1]; 100 nM): 94%
- cell viability ([1]; 1000 nM): 88.3%
- cell viability ([1]; 10000 nM): 7%
- cell viability ([13]; 1 nM): 103%
- cell viability ([13]; 10 nM): 102%
- cell viability ([13]; 100 nM): 95.8%
- cell viability ([13]; 1000 nM): 70.3%
- cell viability ([13]; 10000 nM): 1.4%
- cell viability ([3]; 1 nM): 98.9%
- cell viability ([3]; 10 nM): 98%
- cell viability ([3]; 100 nM): 94.5%
- cell viability ([3]; 1000 nM): 97.9%
- cell viability ([3]; 10000 nM): 0.1%
- cell viability ([4]; 1 nM): 101%
- cell viability ([4]; 10 nM): 95.6%
- cell viability ([4]; 100 nM): 99.3%
- cell viability ([4]; 1000 nM): 94.7%
- cell viability ([4]; 10000 nM): 0.4%
- relative viability EC50 [5]: 2.14 µM
- relative viability EC50 [14]: 1.4 µM
- relative viability EC50 [7]: 3.02 µM
- relative viability EC50 [8]: 2.75 µM
- drug sensitivity score [9]: 7.1
- drug sensitivity score [15]: 9.8
- drug sensitivity score [11]: 5.8
- drug sensitivity score [12]: 6.3

Compound: CC(CCc1ccc(O)cc1)NCC(O)c1ccc(O)cc1 (centres undefined) [ractopamine]
- cell viability ([1]; 1 nM): 91.9%
- cell viability ([1]; 10 nM): 84.6%
- cell viability ([1]; 100 nM): 104%
- cell viability ([1]; 1000 nM): 110%
- cell viability ([1]; 10000 nM): 114%
- cell viability ([2]; 1 nM): 92.8%
- cell viability ([2]; 10 nM): 87.2%
- cell viability ([2]; 100 nM): 101%
- cell viability ([2]; 1000 nM): 94.4%
- cell viability ([2]; 10000 nM): 115%
- cell viability ([3]; 1 nM): 100%
- cell viability ([3]; 10 nM): 98.1%
- cell viability ([3]; 100 nM): 99.1%
- cell viability ([3]; 1000 nM): 99.2%
- cell viability ([3]; 10000 nM): 101%
- cell viability ([4]; 1 nM): 115%
- cell viability ([4]; 10 nM): 102%
- cell viability ([4]; 100 nM): 101%
- cell viability ([4]; 1000 nM): 99.3%
- cell viability ([4]; 10000 nM): 104%
- relative viability EC50 [5]: > 10 µM
- relative viability EC50 [6]: > 10 µM
- relative viability EC50 [7]: > 10 µM
- relative viability EC50 [8]: > 10 µM
- drug sensitivity score [9]: 0
- drug sensitivity score [10]: 0
- drug sensitivity score [11]: 0
- drug sensitivity score [12]: 0

Compound: CN(c1ccc(NC(=O)Nc2ccccc2)cc1)S(=O)(=O)c1cnn(-c2ccc(F)cc2)c1 [BTT-3033]
- cell viability ([1]; 1 nM): 101%
- cell viability ([1]; 10 nM): 115%
- cell viability ([1]; 100 nM): 96.3%
- cell viability ([1]; 1000 nM): 109%
- cell viability ([1]; 10000 nM): 100%
- cell viability ([2]; 1 nM): 96.7%
- cell viability ([2]; 10 nM): 104%
- cell viability ([2]; 100 nM): 97.6%
- cell viability ([2]; 1000 nM): 97.5%
- cell viability ([2]; 10000 nM): 106%
- cell viability ([3]; 1 nM): 104%
- cell viability ([3]; 10 nM): 104%
- cell viability ([3]; 100 nM): 101%
- cell viability ([3]; 1000 nM): 111%
- cell viability ([3]; 10000 nM): 99.8%
- relative viability EC50 [5]: > 10 µM
- relative viability EC50 [6]: > 10 µM
- relative viability EC50 [7]: > 10 µM
- drug sensitivity score [9]: 0
- drug sensitivity score [10]: 0
- drug sensitivity score [11]: 0

Compound: C[C@]12CC[C@@H](O)C[C@@H]1CC[C@@H]1[C@@H]2CC[C@]2(C)C(c3ccccc3)=CC[C@@H]12 [17-PA]
- cell viability ([1]; 1 nM): 95%
- cell viability ([1]; 10 nM): 87.9%
- cell viability ([1]; 100 nM): 87.5%
- cell viability ([1]; 1000 nM): 104%
- cell viability ([1]; 10000 nM): 82.6%
- cell viability ([2]; 1 nM): 101%
- cell viability ([2]; 10 nM): 106%
- cell viability ([2]; 100 nM): 94.2%
- cell viability ([2]; 1000 nM): 94.7%
- cell viability ([2]; 10000 nM): 99.8%
- cell viability ([3]; 1 nM): 96.1%
- cell viability ([3]; 10 nM): 101%
- cell viability ([3]; 100 nM): 96.4%
- cell viability ([3]; 1000 nM): 103%
- cell viability ([3]; 10000 nM): 102%
- cell viability ([4]; 1 nM): 98.1%
- cell viability ([4]; 10 nM): 89.2%
- cell viability ([4]; 100 nM): 99.6%
- cell viability ([4]; 1000 nM): 93%
- cell viability ([4]; 10000 nM): 107%
- relative viability EC50 [5]: > 10 µM
- relative viability EC50 [6]: > 10 µM
- relative viability EC50 [7]: > 10 µM
- relative viability EC50 [8]: > 10 µM
- drug sensitivity score [9]: 0.3
- drug sensitivity score [10]: 0
- drug sensitivity score [11]: 0
- drug sensitivity score [12]: 0

Compound: Cc1cc(C(=O)O)sc1C(N)C(=O)O (centres undefined) [3-MATIDA]
- cell viability ([1]; 1 nM): 96.9%
- cell viability ([1]; 10 nM): 105%
- cell viability ([1]; 100 nM): 97.3%
- cell viability ([1]; 1000 nM): 99.4%
- cell viability ([1]; 10000 nM): 96.9%
- cell viability ([13]; 1 nM): 96.4%
- cell viability ([13]; 10 nM): 94.8%
- cell viability ([13]; 100 nM): 83.2%
- cell viability ([13]; 1000 nM): 96.3%
- cell viability ([13]; 10000 nM): 91.8%
- cell viability ([3]; 1 nM): 103%
- cell viability ([3]; 10 nM): 110%
- cell viability ([3]; 100 nM): 96.8%
- cell viability ([3]; 1000 nM): 102%
- cell viability ([3]; 10000 nM): 97.5%
- cell viability ([4]; 1 nM): 92.6%
- cell viability ([4]; 10 nM): 99.2%
- cell viability ([4]; 100 nM): 95.2%
- cell viability ([4]; 1000 nM): 93.5%
- cell viability ([4]; 10000 nM): 98%
- relative viability EC50 [5]: > 10 µM
- relative viability EC50 [14]: > 10 µM
- relative viability EC50 [7]: > 10 µM
- relative viability EC50 [8]: > 10 µM
- drug sensitivity score [9]: 0
- drug sensitivity score [15]: 0
- drug sensitivity score [11]: 0
- drug sensitivity score [12]: 0

Compound: CCOC(=O)[C@H](Cc1ccccc1)NC(=O)c1cc(Cl)c(OCCN2CCN(C)CC2)c(Cl)c1O [JTE-607]
- cell viability ([1]; 1 nM): 90.9%
- cell viability ([1]; 10 nM): 95.5%
- cell viability ([1]; 100 nM): 99.8%
- cell viability ([1]; 1000 nM): 103%
- cell viability ([1]; 10000 nM): 76.1%
- cell viability ([13]; 1 nM): 107%
- cell viability ([13]; 10 nM): 109%
- cell viability ([13]; 100 nM): 98.6%
- cell viability ([13]; 1000 nM): 56.8%
- cell viability ([13]; 10000 nM): 41.9%
- cell viability ([3]; 1 nM): 99.9%
- cell viability ([3]; 10 nM): 98.8%
- cell viability ([3]; 100 nM): 95.7%
- cell viability ([3]; 1000 nM): 102%
- cell viability ([3]; 10000 nM): 80%
- cell viability ([4]; 1 nM): 103%
- cell viability ([4]; 10 nM): 99.1%
- cell viability ([4]; 100 nM): 104%
- cell viability ([4]; 1000 nM): 101%
- cell viability ([4]; 10000 nM): 103%
- relative viability EC50 [5]: > 10 µM
- relative viability EC50 [14]: 0.606 µM
- relative viability EC50 [7]: > 10 µM
- relative viability EC50 [8]: > 10 µM
- drug sensitivity score [9]: 0.7
- drug sensitivity score [15]: 8.4
- drug sensitivity score [11]: 0.5
- drug sensitivity score [12]: 0

Compound: CC(C)(CO)[C@@H](O)C(=O)NCCC(=O)O [pantothenic-acid]
- cell viability ([1]; 1 nM): 101%
- cell viability ([1]; 10 nM): 97.3%
- cell viability ([1]; 100 nM): 96.7%
- cell viability ([1]; 1000 nM): 94.8%
- cell viability ([1]; 10000 nM): 66.4%
- cell viability ([2]; 1 nM): 99.6%
- cell viability ([2]; 10 nM): 97.7%
- cell viability ([2]; 100 nM): 106%
- cell viability ([2]; 1000 nM): 87.8%
- cell viability ([2]; 10000 nM): 103%
- cell viability ([3]; 1 nM): 95.9%
- cell viability ([3]; 10 nM): 91.4%
- cell viability ([3]; 100 nM): 101%
- cell viability ([3]; 1000 nM): 92.3%
- cell viability ([3]; 10000 nM): 97.4%
- cell viability ([4]; 1 nM): 100%
- cell viability ([4]; 10 nM): 103%
- cell viability ([4]; 100 nM): 95%
- cell viability ([4]; 1000 nM): 98.5%
- cell viability ([4]; 10000 nM): 94%
- relative viability EC50 [6]: > 10 µM
- relative viability EC50 [7]: > 10 µM
- relative viability EC50 [8]: > 10 µM
- drug sensitivity score [9]: 2.4
- drug sensitivity score [10]: 0
- drug sensitivity score [11]: 0
- drug sensitivity score [12]: 0

Compound: CCNC(=O)CC[C@H](N)C(=O)O [L-theanine]
- cell viability ([1]; 1 nM): 98.2%
- cell viability ([1]; 10 nM): 95%
- cell viability ([1]; 100 nM): 98.7%
- cell viability ([1]; 1000 nM): 93.1%
- cell viability ([1]; 10000 nM): 105%
- cell viability ([13]; 1 nM): 95.8%
- cell viability ([13]; 10 nM): 89.8%
- cell viability ([13]; 100 nM): 95.5%
- cell viability ([13]; 1000 nM): 89.8%
- cell viability ([13]; 10000 nM): 99.4%
- cell viability ([3]; 1 nM): 99.8%
- cell viability ([3]; 10 nM): 103%
- cell viability ([3]; 100 nM): 95.8%
- cell viability ([3]; 1000 nM): 101%
- cell viability ([3]; 10000 nM): 102%
- cell viability ([4]; 1 nM): 95.8%
- cell viability ([4]; 10 nM): 99%
- cell viability ([4]; 100 nM): 105%
- cell viability ([4]; 1000 nM): 104%
- cell viability ([4]; 10000 nM): 88%
- relative viability EC50 [5]: > 10 µM
- relative viability EC50 [14]: > 10 µM
- relative viability EC50 [7]: > 10 µM
- relative viability EC50 [8]: > 10 µM
- drug sensitivity score [9]: 0
- drug sensitivity score [15]: 0
- drug sensitivity score [11]: 0
- drug sensitivity score [12]: 0
